Results taken from patent US20250154193A1, “STEROID COMPOUND, AND PREPARATION METHOD THEREFOR AND APPLICATION THEREOF” (CHOLESGEN (SHANGHAI) CO., LTD., priority 2022, published 2025).

Assays:
SREBP pathway = assay: SREBP luciferase reporter gene system (SRE-luciferase assay) in Huh-7/SRE-Luc cells; assay type: cell-based; conditions: Homo sapiens, sterol-deficient medium, compound treatment 16 hours, luciferase/GFP ratio
Description: Huh-7/SRE-Luc, a human hepatocellular carcinoma cell line, was grown in a culture medium containing DMEM, 10% fetal bovine serum, 100 units/mL penicillin, 100 µg/mL streptomycin, and 200 μg/mL G418.
The Huh-7/SRE-Luc cell line is a human hepatocellular carcinoma cell line Huh-7 stably expressing LDLR promoter-luciferase and green fluorescent protein (GFP). The LDLR promoter region contains a sterol regulatory element (SRE) that can effectively and sensitively respond to the regulation of the transcription factor SREBP. The GFP signal serves as an internal reference to indicate changes in cell number. Therefore, this cell line can be used to screen for active small molecules that regulate the SREBP signaling pathway. […] Cells were incubated in a sterol-deficient medium (5% lipoprotein-deficient serum, 2 μM Lovastatin, 10 μM mevalonate) and treated with corresponding concentrations of compounds for 16 hours. After compound treatment, the cells were lysed with lysis buffer (E397A, Promega), followed by the addition of luciferase substrate (E1500, Promega). The SRE-driven luciferase activity was measured using a BioTek Synergy HTX microplate reader (including but not limited to this type of instrument). The fluorescence intensity of enhanced green fluorescent protein (EGFP) was also measured using the BioTek microplate reader (including but not limited to this type of instrument) and used as an internal reference. The ratio of SRE-driven luciferase activity to GFP fluorescence intensity was used as an indicator of SREBP pathway activity. The test data of each test compound was analyzed using Prism software to obtain the IC50 parameter of the compound.
The inhibitory effect of the compounds of the present disclosure on the SREBP pathway was tested by the method of bioassay example 2. The concentration gradient of each compound was designed as 0.01, 0.03, 0.1, 0.3, 1.0, 3.0, and […], with DMSO as a vehicle control.

[1] = Liver microsomal metabolic stability assay; assay type: in vitro ADME; conditions: rat liver microsomes, NADPH, 37° C., 0-60 minutes; read-out: Rat microsomal metabolic half-life (t1/2)
Description: PBS solution (100 mM), MgCl2 solution (100 mM), and NADPH solution (20 mM) were prepared respectively. Compound and testosterone (positive control) stock solutions were then prepared with dimethyl sulfoxide (DMSO), diluted to 100 µM with methanol for sample incubation, and stored at −10 to −30° C. 12.5 μL of rat liver microsomes (purchased from XenoTech, Cat. No.: R1000, Lot No.: 1310030, specification: 20 mg/mL), 432.5 µL of PBS solution (100 mM), 25 µL of NADPH solution (20 mM), and 25 μL of MgCl2 solution (100 mM) were added to a 96-well plate, mixed well, and pre-incubated at 37° C. for 5 minutes. 5 µL of substrate (test compound) solution was added to start the reaction. At specified time points of 0, 5, 15, 30, 45, and 60 minutes (0 and 60 minutes for the negative control group), 50 µL of the incubated samples were added to a stop plate containing 100 µL of ice-cold stop solution, vortexed for 1 minute to inactivate the reaction, and stored at −60 to −90° C. for subsequent analysis. Sample analysis of the test compound and the control compound testosterone was performed using LC-MS/MS method. Chromatographic peaks were integrated, calculated, and processed using Analyst software. Semi-quantitative analysis was performed for both the test compound and the control compound testosterone by calculating peak area ratios.

C[C@H](CCC[C@@H](O)c1ccccc1F)[C@H]1CC[C@H]2[C@@H]3CC[C@H]4[C@@H](O)[C@@H](O)CC[C@]4(C)[C@H]3CC[C@]12C (single isomer, unassigned) [compound 279, 24-[R-(2-fluorophenyl)(hydroxy)methyl]-5α-cholan-30,40-diol or 24-[S-(2-fluorophenyl)(hydroxy)methyl]-5α-cholan-30,40-diol]
IC50 (SREBP pathway): 0.196 µM | half-life at 1 µM [1]: 0.922 h

C[C@H](CCCC(C)(C)O)[C@H]1CC[C@H]2[C@@H]3CC[C@H]4C[C@@H](O)CC[C@]4(C)[C@H]3CC[C@]12C [compound 185, cholest-3β,25-diol]
IC50 (SREBP pathway): 0.233 µM | half-life at 1 µM [1]: 3.17 h

C[C@H](CCCC(C)(C)O)[C@H]1CC[C@H]2[C@@H]3CC[C@H]4[C@@H](O)[C@@H](O)CC[C@]4(C)[C@H]3CC[C@]12C [compound 198, 5α-Cholest-30,40,25-triol]
IC50 (SREBP pathway): 0.106 µM | half-life at 1 µM [1]: 1.2 h

C[C@H](CCCC(C)(C)O)[C@H]1CC[C@H]2[C@@H]3CC[C@H]4[C@H](O)[C@@H](O)CC[C@]4(C)[C@H]3CC[C@]12C [compound 204, 5α-cholest-3β,4α,25-triol]
IC50 (SREBP pathway): 0.395 µM | half-life at 1 µM [1]: 3.97 h

C[C@H](CCCC(C)(C)O)[C@H]1CC[C@H]2[C@@H]3C(=O)C[C@H]4C[C@@H](O)CC[C@]4(C)[C@H]3CC[C@]12C [compound 216, 3P,25-dihydroxy-5α-cholest-7-one]
IC50 (SREBP pathway): 0.379 µM | half-life at 1 µM [1]: 0.385 h

C[C@H](CCCC(C)(C)O)[C@H]1CC[C@H]2[C@@H]3CC[C@H]4C(=O)[C@@H](O)CC[C@]4(C)[C@H]3CC[C@]12C [compound 238, 3β,25-Dihydroxy-5α-cholest-4-one]
IC50 (SREBP pathway): 0.049 µM | half-life at 1 µM [1]: 1.26 h

C[C@H](CCCC(C)(C)O)[C@H]1CC[C@H]2[C@H]3[C@H](CC[C@]12C)[C@@]1(C)CC[C@H](O)[C@H](O)[C@@H]1CC3(F)F [compound 274, (1R,3aS,3bS,5aR,6R,7S,9aR,9bS,11aR)-4,4-difluoro-1-[(2R)-6-hydroxy-6-methylheptan-2-yl]-9a,11a-dimethylhexadecahydro-1H-cyclopenta[1,2-a]phenanthrene-6,7-diol]
IC50 (SREBP pathway): 0.313 µM | half-life at 1 µM [1]: > 3.1 h

C[C@H](CCCC(O)c1c(F)cc(F)cc1F)[C@H]1CC[C@H]2[C@@H]3CC[C@H]4[C@@H](O)[C@@H](O)CC[C@]4(C)[C@H]3CC[C@]12C (stereo partly drawn) [compound 275, 24-[(2,4,6-difluorophenyl)(hydroxy)methyl]-5α-cholan-3β,4β-diol]
IC50 (SREBP pathway): 0.141 µM | half-life at 1 µM [1]: 1.52 h

C[C@H](CCCC(O)c1cccc(F)c1)[C@H]1CC[C@H]2[C@@H]3CC[C@H]4[C@@H](O)[C@@H](O)CC[C@]4(C)[C@H]3CC[C@]12C (stereo partly drawn) [compound 281, 24-[(3-fluorophenyl)(hydroxy)methyl]-5α-cholan-3β,4β-diol]
IC50 (SREBP pathway): 0.111 µM | half-life at 1 µM [1]: 1.17 h

C[C@H](CCCC(O)c1c(F)cccc1F)[C@H]1CC[C@H]2[C@@H]3CC[C@H]4[C@@H](O)[C@@H](O)CC[C@]4(C)[C@H]3CC[C@]12C (stereo partly drawn) [compound 284, 24-[(2,6-difluorophenyl)(hydroxy)methyl]-5α-cholan-3β,4β-diol]
IC50 (SREBP pathway): 0.0874 µM | half-life at 1 µM [1]: > 2 h

COc1ccccc1C(O)CCC[C@@H](C)[C@H]1CC[C@H]2[C@@H]3CC[C@H]4[C@@H](O)[C@@H](O)CC[C@]4(C)[C@H]3CC[C@]12C (stereo partly drawn) [compound 287, 24-[Hydroxy(2-methoxyphenyl)methyl]-5α-cholan-30,40-diol]
IC50 (SREBP pathway): 0.159 µM | half-life at 1 µM [1]: 1.27 h

C[C@H](CCCC(O)c1c(F)cccc1F)[C@H]1CC[C@H]2[C@@H]3CC[C@H]4C(=O)[C@@H](O)CC[C@]4(C)[C@H]3CC[C@]12C (some centres unmarked) [compound 298]
IC50 (SREBP pathway): 0.028 µM | half-life at 1 µM [1]: 0.316 h

C[C@H](CCCC(O)c1c(F)cccc1F)[C@H]1CC[C@H]2[C@H]3[C@H](CC[C@]12C)[C@@]1(C)CC[C@H](O)[C@H](O)[C@@H]1CC3(F)F (stereo partly drawn) [compound 300, (1R,3aS,3bS,5aR,6R,7S,9aR,9bS,11aR)-1-[(2R)-6-(2,6-difluorophenyl)-6-hydroxyhexan-2-yl]-4,4-difluoro-9a,11a-dimethylhexadecahydro-1H-cyclopenta[1,2-α]phenanthrene-6,7-diol]
IC50 (SREBP pathway): 0.036 µM | half-life at 1 µM [1]: 0.402 h

C[C@H](CCCC(C)(C)O)[C@H]1CC[C@H]2[C@H]3[C@H](CC[C@]12C)[C@@]1(C)CC[C@H](O)C(=O)[C@@H]1CC3(F)F [compound 302, (1R,3aS,3bS,5aR,7S,9aR,9bS,11aR)-4,4-difluoro-7-hydroxy-1-[(2R)-6-hydroxy-6-methylheptan-2-yl]-9a,11a-dimethylhexadecahydro-1H-cyclopenta[1,2-α]phenanthren-6-one]
IC50 (SREBP pathway): 0.035 µM | half-life at 1 µM [1]: 0.979 h

COc1ccccc1C(O)CCC[C@@H](C)[C@H]1CC[C@H]2[C@@H]3CC[C@H]4C[C@@H](O)CC[C@]4(C)[C@H]3CC[C@]12C (stereo partly drawn) [compound 312, 24-[hydroxy(2-methoxyphenyl)methyl]-5α-cholan-3β-ol]
IC50 (SREBP pathway): 0.18 µM

C[C@H](CCCC(C)(C)O)[C@H]1CC[C@H]2[C@@H]3CC[C@H]4[C@@H](O)[C@@H](OC(=O)CO)CC[C@]4(C)[C@H]3CC[C@]12C [compound 313, (1R,3aS,3bS,5aR,6R,7S,9aR,9bS,11aR)-6-hydroxy-1-[(2R)-6-hydroxy-6-methylheptan-2-yl]-9a,11a-dimethylhexadecahydro-1H-cyclopenta[1,2-i]phenanthren-7-yl hydroxyacetate]
IC50 (SREBP pathway): 0.07 µM

C[C@H](CCCC(O)c1ccc(F)cc1)[C@H]1CC[C@H]2[C@@H]3CC[C@H]4[C@@H](O)[C@@H](O)CC[C@]4(C)[C@H]3CC[C@]12C (stereo partly drawn) [compound 316, 24-[(4-fluorophenyl)(hydroxy)methyl]-5α-cholan-3β,4β-diol]
IC50 (SREBP pathway): 0.1 µM

COc1ccccc1C(O)CCC[C@@H](C)[C@H]1CC[C@H]2[C@@H]3C(=O)C[C@H]4[C@@H](O)[C@@H](O)CC[C@]4(C)[C@H]3CC[C@]12C (stereo partly drawn) [compound 320, 4β-hydroxy-3β-hydroxy-24-[hydroxy(2-methoxyphenyl)methyl]-5α-cholan-7-one]
IC50 (SREBP pathway): 0.16 µM

COC(=O)C1CC[C@@]2(C)[C@@H](CC[C@@H]3[C@@H]2CC[C@]2(C)[C@@H]([C@H](C)CCCC(C)(C)O)CC[C@@H]32)C1 (stereo partly drawn) [compound 321, methyl 25-hydroxy-5α-cholest-3-carboxylate]
IC50 (SREBP pathway): 7.2 µM

C[C@H](CCCC(O)c1ccccc1Cl)[C@H]1CC[C@H]2[C@@H]3CC[C@H]4[C@@H](O)[C@@H](O)CC[C@]4(C)[C@H]3CC[C@]12C (stereo partly drawn) [compound 322, 24-[(2-chlorophenyl)(hydroxy)methyl]-5α-cholan-3β,4β-diol]
IC50 (SREBP pathway): 0.61 µM

Cc1ccccc1C(O)CCC[C@@H](C)[C@H]1CC[C@H]2[C@@H]3CC[C@H]4[C@@H](O)[C@@H](O)CC[C@]4(C)[C@H]3CC[C@]12C (stereo partly drawn) [compound 323, 24-[hydroxy(2-methylphenyl)methyl]-5α-cholan-3β,4β-diol]
IC50 (SREBP pathway): 0.25 µM
